Test results: the supplement of paper PMC10307832

Columns and labels:
Assay in all cases: relative viability (nuclei count vs DMSO), 5 days (fraction); higher = more cells survive
[1] = tested on: A-427
In short: (§1)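 Relative viability is defined as nuclei in treated wells over nuclei in vehicle wells. Duplicate plates were run and medians reported. Lung cancer cell lines in 1536-well plates were dosed by pin tool one day after seeding, with one drug or with a fixed anchor-drug dose plus five library-drug doses (not always all listed) in √10 steps, and nuclei were counted after 5 days.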

[2] = tested on: HCC-15
In short: as §1

[3] = tested on: HCC-78
In short: as §1

[4] = tested on: HOP-62
In short: as §1

[5] = tested on: LC-2-ad
In short: as §1

[6] = tested on: LXF-289
In short: as §1

[7] = tested on: NCI-H1734
In short: as §1

[8] = tested on: NCI-H1755
In short: as §1

[9] = tested on: NCI-H1792
In short: as §1

[10] = tested on: NCI-H1915
In short: as §1

[11] = tested on: NCI-H1975
In short: as §1

[12] = tested on: NCI-H2126
In short: as §1

[13] = tested on: NCI-H2228
In short: as §1

[14] = tested on: NCI-H2347
In short: as §1

[15] = tested on: NCI-H647
In short: as §1

[16] = tested on: PC-3 [JPC-3]
In short: as §1

[17] = tested on: RERF-LC-KJ
In short: as §1

[18] = tested on: SK-LU-1
In short: as §1

[19] = tested on: SW 1573
In short: as §1

`Cc1sc2c(c1C)C(c1ccc(Cl)cc1)=N[C@@H](CC(=O)OC(C)(C)C)c1nnc(C)n1-2` [JQ1] + CC(C)C[C@H](NC(=O)[C@H](Cc1ccccc1)NC(=O)c1cnccn1)B(O)O [Bortezomib] (partner 0.002 µM) was tested, and the relative viability ([1]; first compound 0.04 µM) was 0.969, the relative viability ([1]; first compound 0.1265 µM) was 1.04 and the relative viability ([1]; first compound 0.4 µM) was 0.979. For the same compound, the relative viability ([1]; first compound 1.265 µM) was 0.682, the relative viability ([1]; first compound 4 µM) was 0.474 and the relative viability ([2]; first compound 0.04 µM) was 0.958. For the same compound, the relative viability ([2]; first compound 0.4 µM) was 0.98, the relative viability ([2]; first compound 1.265 µM) was 0.705 and the relative viability ([2]; first compound 4 µM) was 0.628. For the same compound, the relative viability ([3]; first compound 0.04 µM) was 0.53, the relative viability ([3]; first compound 0.1265 µM) was 0.453 and the relative viability ([3]; first compound 0.4 µM) was 0.231. For the same compound, the relative viability ([3]; first compound 1.265 µM) was 0.19, the relative viability ([3]; first compound 4 µM) was 0.172 and the relative viability ([4]; first compound 0.04 µM) was 0.447. For the same compound, the relative viability ([4]; first compound 0.1265 µM) was 0.641, the relative viability ([4]; first compound 0.4 µM) was 0.515 and the relative viability ([4]; first compound 1.265 µM) was 0.11. It also gave a relative viability ([4]; first compound 4 µM) of 0.111, a relative viability ([5]; first compound 0.04 µM) of 0.853 and a relative viability ([5]; first compound 0.1265 µM) of 0.391. It also gave a relative viability ([5]; first compound 0.4 µM) of 0.787, a relative viability ([5]; first compound 1.265 µM) of 0.131 and a relative viability ([5]; first compound 4 µM) of 0.109. For the same compound, the relative viability ([6]; first compound 0.04 µM) was 0.977, the relative viability ([6]; first compound 0.1265 µM) was 0.887 and the relative viability ([6]; first compound 0.4 µM) was 0.865. It also gave a relative viability ([6]; first compound 1.265 µM) of 0.894, a relative viability ([6]; first compound 4 µM) of 0.719 and a relative viability ([7]; first compound 0.04 µM) of 0.967. It also gave a relative viability ([7]; first compound 0.1265 µM) of 0.788, a relative viability ([7]; first compound 0.4 µM) of 0.878 and a relative viability ([7]; first compound 1.265 µM) of 0.597. For the same compound, the relative viability ([7]; first compound 4 µM) was 0.474, the relative viability ([8]; first compound 0.04 µM) was 0.923 and the relative viability ([8]; first compound 0.1265 µM) was 0.807. The relative viability ([8]; first compound 0.4 µM) was 0.995, the relative viability ([8]; first compound 1.265 µM) was 0.618 and the relative viability ([8]; first compound 4 µM) was 0.44. It also gave a relative viability ([9]; first compound 0.04 µM) of 0.953, a relative viability ([9]; first compound 0.4 µM) of 0.895 and a relative viability ([9]; first compound 1.265 µM) of 0.657. It also gave a relative viability ([9]; first compound 4 µM) of 0.456, a relative viability ([10]; first compound 0.04 µM) of 1.02 and a relative viability ([10]; first compound 0.1265 µM) of 0.706. It also gave a relative viability ([10]; first compound 0.4 µM) of 0.961, a relative viability ([10]; first compound 1.265 µM) of 0.678 and a relative viability ([10]; first compound 4 µM) of 0.642. It also gave a relative viability ([11]; first compound 0.04 µM) of 0.355, a relative viability ([11]; first compound 0.1265 µM) of 0.258 and a relative viability ([11]; first compound 0.4 µM) of 0.317. It also gave a relative viability ([11]; first compound 1.265 µM) of 0.177, a relative viability ([11]; first compound 4 µM) of 0.152 and a relative viability ([12]; first compound 0.04 µM) of 1.08. For the same compound, the relative viability ([12]; first compound 0.1265 µM) was 1.01, the relative viability ([12]; first compound 0.4 µM) was 1.14 and the relative viability ([12]; first compound 1.265 µM) was 0.981. It also gave a relative viability ([12]; first compound 4 µM) of 0.966, a relative viability ([13]; first compound 0.04 µM) of 0.764 and a relative viability ([13]; first compound 0.1265 µM) of 0.918. It also gave a relative viability ([13]; first compound 0.4 µM) of 0.609, a relative viability ([13]; first compound 1.265 µM) of 0.245 and a relative viability ([13]; first compound 4 µM) of 0.185. For the same compound, the relative viability ([14]; first compound 0.04 µM) was 1.13, the relative viability ([14]; first compound 0.1265 µM) was 0.934 and the relative viability ([14]; first compound 0.4 µM) was 0.841. The relative viability ([14]; first compound 1.265 µM) was 0.564, the relative viability ([14]; first compound 4 µM) was 0.404 and the relative viability ([15]; first compound 0.04 µM) was 0.678. It also gave a relative viability ([15]; first compound 0.1265 µM) of 0.521, a relative viability ([15]; first compound 0.4 µM) of 0.346 and a relative viability ([15]; first compound 1.265 µM) of 0.0716. For the same compound, the relative viability ([15]; first compound 4 µM) was 0.102, the relative viability ([16]; first compound 0.04 µM) was 0.845 and the relative viability ([16]; first compound 0.1265 µM) was 0.81. It also gave a relative viability ([16]; first compound 0.4 µM) of 0.977, a relative viability ([16]; first compound 1.265 µM) of 0.675 and a relative viability ([16]; first compound 4 µM) of 0.352. The relative viability ([17]; first compound 0.04 µM) was 1.17, the relative viability ([17]; first compound 0.1265 µM) was 1.11 and the relative viability ([17]; first compound 0.4 µM) was 1.13. The relative viability ([17]; first compound 1.265 µM) was 0.52, the relative viability ([17]; first compound 4 µM) was 0.415 and the relative viability ([18]; first compound 0.04 µM) was 1.37. For the same compound, the relative viability ([18]; first compound 0.1265 µM) was 0.693, the relative viability ([18]; first compound 0.4 µM) was 0.941 and the relative viability ([18]; first compound 1.265 µM) was 0.28. It also gave a relative viability ([18]; first compound 4 µM) of 0.205, a relative viability ([19]; first compound 0.04 µM) of 1.13 and a relative viability ([19]; first compound 0.1265 µM) of 1.03. It also gave a relative viability ([19]; first compound 0.4 µM) of 0.863, a relative viability ([19]; first compound 1.265 µM) of 0.582 and a relative viability ([19]; first compound 4 µM) of 0.351.
